Laboratory results published in patent publication US20260234129A1, “NOVEL IMIDAZOLE DERIVATIVE AND USE THEREOF” (PELEMED CO., LTD., priority 2023, published 2026).

Tests used:
[1] = system: BaF3-ITD-FLT3 F691L cell line; assay: Cell proliferation inhibition, Alamar Blue; assay type: cell-based; conditions: 72 hours of compound treatment, read-out: Cellular (GI50) BaF3-ITD-FLT3 F691L
Protocol: (§1) The cell proliferation inhibition experiment on acute myeloid leukemia (AML) cell lines was performed using FL3-ITD-expressing AML cell line MV4-11, BaF3-ITD-FLT3 F691L cell line, and BaF3-ITD-FLT3 D835Y cell line to test FLT3 inhibitory activity. All cell lines were human-derived cell lines, and the sources and culture conditions for each cell line are as follows.
(§2) Cell viability was assessed by a resazurin redox-based assay using the Alamar Blue Assay kit (Invitrogen, USA). Specifically, MV4-11, BaF3-ITD-FLT3-F691L, and BaF3-ITD-FLT3-D835Y cells were plated in 384-well plates at 8,000 cells in 45 μL of medium. As a negative control, dimethyl sulfoxide (DMSO) was added together with the compound. After three days (72 hours) of compound treatment, 5 μL of the Alamar Blue kit reagent was added to each well of the 384-well plates, followed by incubation at 37° C. for 2 hours in a humidified CO2 incubator. After incubation, fluorescence intensity (Flu) was measured at 544 nm and 590 nm using a SpectraMax iD3 Multi Mode Microplate Reader (Molecular Devices, ID3-STD).

[2] = system: BaF3-ITD-FLT3 D835Y cell line; assay: Cell proliferation inhibition, Alamar Blue; assay type: cell-based; conditions: 72 hours of compound treatment, read-out: Cellular (GI50) BaF3-ITD-FLT3 D835Y
Protocol: as §1, §2

[3] = system: MV4-11 cells (FLT3-ITD-expressing AML cell line); assay: Cell proliferation inhibition, Alamar Blue; assay type: cell-based, human; conditions: Homo sapiens, MV4-11, 72 hours of compound treatment, read-out: Cellular (GI50) MV4-11
Protocol: as §1, §2

[4] = target: T1, FLT3 (Homo sapiens, UniProt P36888); assay: ADP-Glo kinase assay FLT3 WT; assay type: biochemical; conditions: recombinant FLT3, 120 minutes at room temperature, read-out: Enzyme (IC50) FLT3 WT
T1 construct: Recombinant proteins containing FLT3 and FLT3(D835Y) domains were purchased from Promega; purchased Promega V4064
T1 sequence (P36888 610-943 limits assumed): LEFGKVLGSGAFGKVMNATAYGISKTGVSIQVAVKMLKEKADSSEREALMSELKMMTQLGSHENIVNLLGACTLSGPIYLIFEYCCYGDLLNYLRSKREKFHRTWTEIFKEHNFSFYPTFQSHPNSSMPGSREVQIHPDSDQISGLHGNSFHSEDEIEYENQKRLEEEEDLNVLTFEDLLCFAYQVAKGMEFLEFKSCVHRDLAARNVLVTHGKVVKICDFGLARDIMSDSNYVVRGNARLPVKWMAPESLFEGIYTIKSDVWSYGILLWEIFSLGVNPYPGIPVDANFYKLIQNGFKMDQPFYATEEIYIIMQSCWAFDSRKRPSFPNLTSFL
Protocol: (§3) FLT3 activity inhibition was measured using the ADP-Glo kinase assay method (Promega, cat #V9101). The ADP-Glo kinase assay method is a luminescent ADP detection assay method that provides a homogeneous, high-throughput screening method for measuring kinase activity by quantifying the amount of ADP produced during the kinase reaction.
(§4) The assay was performed in two steps. First, after the kinase reaction, an equal volume of ADP-Glo™ reagent was added to terminate the kinase reaction and deplete any remaining ATP. Second, a kinase detection reagent was added to convert ADP to ATP, and simultaneously the newly synthesized ATP was measured via the luciferase/luciferin reaction. The light produced was measured using a luminometer.
Recombinant proteins containing FLT3 and FLT3(D835Y) domains were purchased from Promega (cat #V4064, cat #V4514), respectively. According to the manufacturer's instructions, the optimal enzyme, ATP, and substrate concentrations were optimized using the ADP-Glo™ kinase assay method (Promega, USA). […] Thereafter, ADP-Glo™ reagent (5 μl) was added and reacted for an additional 40 minutes at room temperature. Finally, the detection reagent (kinase detection reagent, 10 μl) was added, followed by reaction at room temperature for 30 minutes, and the phosphorylation of the substrate peptide was measured by detecting the luciferase signal (integration time 0.5~1 sec) using a SpectraMax ID5 reader (Molecular Devices LLC., San Jose, CA, USA).

[5] = target: T2, FLT3(D835Y) (Homo sapiens, UniProt P36888, D835Y); assay: ADP-Glo kinase assay FLT3 D835Y; assay type: biochemical; conditions: recombinant FLT3(D835Y), 120 minutes at room temperature, read-out: Enzyme (IC50) FLT3 D835Y
T2 construct: Recombinant proteins containing FLT3 and FLT3(D835Y) domains were purchased from Promega; purchased Promega V4514
Protocol: as §3, §4
Recombinant proteins containing FLT3 and FLT3(D835Y) domains were purchased from Promega (cat #V4064, cat #V4514), respectively. According to the manufacturer's instructions, the optimal enzyme, ATP, and substrate concentrations were optimized using the ADP-Glo™ kinase assay method (Promega, USA). […] Finally, the detection reagent (kinase detection reagent, 10 μl) was added, followed by reaction at room temperature for 30 minutes, and the phosphorylation of the substrate peptide was measured by detecting the luciferase signal (integration time 0.5~1 sec) using a SpectraMax ID5 reader (Molecular Devices LLC., San Jose, CA, USA).

SMILES | GI50 [1] [nM] | GI50 [2] [nM] | GI50 [3] [nM] | IC50 [4] [nM] | IC50 [5] [nM]
O=C(NCC1CC(F)(F)C1)c1ccc2[nH]nc(-c3nc4ccc(N5CCCC5)cc4[nH]3)c2c1 [Example 14, N-((3,3-difluorocyclobutyl)methyl)-3-(6-(pyrrolidin-1-yl)-1H-benzo[d]imidazol-2-yl)-1H-indazole-5-carboxamide] | 100 to 1000 | 10 to 100 | 10 to 100 |  | 
N[C@H]1CC[C@H](NC(=O)c2ccc3[nH]nc(-c4nc5ccc(N6CCCCC6)cc5[nH]4)c3c2)C1 [Example 31, N-((1S,3S)-3-aminocyclopentyl)-3-(6-(piperidin-1-yl)-1H-benzo[d]imidazol-2-yl)-1H-indazole-5-carboxamide] | 10 to 100 | < 10 | < 10 | < 10 | 
N[C@H]1CC[C@H](NC(=O)c2ccc3[nH]nc(-c4nc5ccc(-c6ccco6)cc5[nH]4)c3c2)C1 [Example 80, N-((1S,3S)-3-aminocyclopentyl)-3-(6-(furan-2-yl)-1H-benzo[d]imidazol-2-yl)-1H-indazole-5-carboxamide] | 10 to 100 | < 10 | < 10 |  | 
O=C(NCC1CNC1)c1ccc2[nH]nc(-c3nc4ccc(-c5ccoc5)cc4[nH]3)c2c1 [Example 75, N-(azetidin-3-ylmethyl)-3-(6-(furan-3-yl)-1H-benzo[d]imidazol-2-yl)-1H-indazole-5-carboxamide] | 10 to 100 | < 10 | 10 to 100 |  | 
NCCCNC(=O)c1ccc2[nH]nc(-c3nc4ccc(C(=O)N5CCOCC5)cc4[nH]3)c2c1 [Example 21, N-(3-aminopropyl)-3-(6-(morpholine-4-carbonyl)-1H-benzo[d]imidazol-2-yl)-1H-indazole-5-carboxamide] |  |  | 100 to 1000 | < 10 | < 10
O=C(NCCCC(F)(F)F)c1ccc2[nH]nc(-c3nc4ccc(N5CCCC5)cc4[nH]3)c2c1 [Example 13, 3-(6-(pyrrolidin-1-yl)-1H-benzo[d]imidazol-2-yl)-N-(4,4,4-trifluorobutyl)-1H-indazole-5-carboxamide] | 10 to 100 | 10 to 100 | 10 to 100 |  | 
NCCCNC(=O)c1ccc2[nH]nc(-c3nc4ccc(CN5CCOCC5)cc4[nH]3)c2c1 [Example 26, N-(3-aminopropyl)-3-(6-(morpholinomethyl)-1H-benzo[d]imidazol-2-yl)-1H-indazole-5-carboxamide] |  |  | 100 to 1000 | < 10 | 
COc1ccc2nc(-c3n[nH]c4ccc(C(=O)NCCCN(C)C)cc34)[nH]c2c1 [Example 11, N-(3-(dimethylamino)propyl)-3-(6-methoxy-1H-benzo[d]imidazol-2-yl)-1H-indazole-5-carboxamide] |  |  | < 10 | < 10 | 
